The assay relates to HMPV clinical isolate A2 strain TN 94-49. Description: HMPV antiviral assay, Method 2 (LLC-MK2 cells with CP-100-356, ATP-Lite). Format: cell-based. Particulars: human metapneumovirus. The procedure, abridged:
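EC50 comes from a four-parameter fit of percent cell viability (ATP-Lite, normalized to virus-only and cell-only wells) after 7 days at 37 °C. Infection used HMPV A2 TN 94-49 at MOI 0.16 in LLC-MK2 cells, with 2 μM P-gp inhibitor CP-100-356 and 2 μg/mL TPCK-trypsin final; dose range 200 nM top, 2.5-fold, 10 points, duplicate.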

The mark [1] stands for this setting: hMPV A2 TN/94-49, LLC-MK2 cells with CP-100-356, Method 2.
Setting [2] is: 168 h, hMPV A2 TN/94-49, LLC-MK2 cells with 4 μM CP-100-356, 7 days, ATP-Lite.

From patent publication US20240368174A1, “Antiviral Heterocyclic Compounds” (Enanta Pharmaceuticals, Inc., priority 2023, published 2024) come the findings set out here.

Molecules are shown by their SMILES.

The compound `C[C@]1(C(N)=O)COc2c1cc([C@@](O)(CNC(=O)c1cc(OC(F)F)c3nc(C4CC4)oc3c1)c1ccccc1)nc2-c1cc(Cl)c(F)cc1F` [Example 216] registered an EC50 under setting [1] of under 200 nM.

With `COc1cc(C(=O)NC[C@](O)(c2cc3c(c(-c4c(C)cncc4C)n2)OC[C@]3(C)C(N)=O)C2CC2)cc2cn(C3CC3)nc12` [Example 431], the concentration giving a half-maximal response (EC50) under setting [1] was under 200 nM.

On to `COc1nccc(-c2nc([C@@](O)(CNC(=O)c3cc(OC4CC4)c4nn(C(F)F)cc4c3)C(C)C)cc3c2OC[C@]3(C)C(N)=O)c1Cl` [Example 894], for which, under setting [2], the EC50 is over 200 nM.

Take `COc1cc(C(=O)NC[C@@](O)(c2ccccc2)c2cc3c(c(-n4ncc5c(F)cccc54)n2)OC[C@]3(C)C(N)=O)cc2cn(C(F)F)nc12` [Example 636]: under setting [2], the concentration giving a half-maximal response (EC50) is under 200 nM.

As to `COc1cc(C(=O)NC[C@](O)(c2cc3c(c(-c4cc(C(F)(F)F)ncc4F)n2)OC[C@]3(C)C(N)=O)C2(F)CC2)cc2cn(C3(F)CC3)nc12` [Example 666], the EC50 under setting [2] was under 200 nM.

Under setting [1], `COc1cc(C(=O)NC[C@](O)(c2cc3c(c(-c4ccnc5[nH]ccc45)n2)OC[C@]3(C)C(N)=O)C2CC2)cc2cn(C3CC3)nc12` [Example 429] showed a 50% effective concentration (EC50) of over 200 nM.

As to `COc1cc(C(=O)NC[C@@](O)(c2ccncc2)c2cc3c(c(-c4cc(Cl)c(F)cc4F)n2)OC[C@]3(C)C(N)=O)cc2cn(C3CC3)nc12` [Example 152], the EC50 under setting [1] is under 200 nM.

As to `COc1cc(C(=O)NC[C@@](O)(c2cccc(F)c2)c2cc3c(c(-c4ccc(C(C)(C)O)cc4)n2)OC[C@]3(C)C(N)=O)cc2cn(C3(F)CC3)nc12` [Example 397], the EC50 under setting [1] is over 200 nM.

For `COc1nccc(-c2nc([C@@](O)(CNC(=O)c3cc(OC)c4nc(C5CC5)cn4c3)C(F)(F)F)cc3c2OC[C@]3(C)C(N)=O)c1Cl` [Example 589], the EC50 under setting [1] was under 200 nM.

`COc1cc(C(=O)NC[C@](O)(c2cc3c(c(-n4ccc5cnccc54)n2)OC[C@]3(C)C(N)=O)C2CC2)cc2cn(C3CC3)nc12` [Example 841] registered a concentration giving a half-maximal response (EC50) under setting [2] of under 200 nM.

Under setting [2], `COc1cc(C(=O)NC[C@](O)(c2cc3c(c(-n4cc5cc(F)ccc5n4)n2)OC[C@]3(C)C(N)=O)C2CC2)cc2cn(C3CC3)nc12` [Example 719] showed an EC50 of over 200 nM.

Regarding `Cc1nccc(-c2nc([C@@](O)(CNC(=O)c3cc(OC4CC4)c4nn(C5CC5)cc4c3)c3cccc(F)c3)cc3c2OC[C@]3(C)C(N)=O)c1Cl` [Example 603], the EC50 under setting [1] was under 200 nM.

As for `COc1cc(C(=O)NC[C@](O)(c2cc3c(c(-c4ccnc(OC(C)C)c4Cl)n2)OC[C@]3(C)C(N)=O)C2CC2)cc2cn(C3CC3)nc12` [Example 806], the EC50 under setting [2] is over 200 nM.

`COc1cc(-c2nc([C@@](O)(CNC(=O)c3cc(OC)c4nn(C5CC5)cc4c3)C3CC3)cc3c2OC[C@]3(C)C(N)=O)c(Cl)cn1` [Example 834] displayed an EC50 under setting [2] of over 200 nM.

For `C[C@]1(C(N)=O)COc2c1cc([C@@](O)(CNC(=O)c1ccc3nc(C4CC4)oc3c1)c1cccc(F)c1)nc2-c1ccc(F)c(Cl)c1Cl` [Example 312], the EC50 under setting [1] is under 200 nM.

Consider `COc1cc([C@](O)(CNC(=O)c2cc(OC)c3nn(C4CC4)cc3c2)c2cc3c(c(-c4cccc(Cl)c4Cl)n2)OC[C@]3(C)C(N)=O)cc(OC)n1` [Example 497], for which the 50% effective concentration (EC50) under setting [1] was under 200 nM.

The compound `COc1nccc(-c2nc([C@@](O)(CNC(=O)c3cc(OC)c4nc(C5CC5)oc4c3)c3ccccc3)cc3c2OC[C@]3(C)C(N)=O)c1Cl` [Example 556] came in with an EC50 under setting [1] of under 200 nM.

The compound `COc1nccc(-c2nc([C@@](O)(CNC(=O)c3cc(OC)c4nc(C(F)F)oc4c3)c3cccc(F)c3)cc3c2OC[C@]3(C)C(N)=O)c1Cl` [Example 561] displayed an EC50 under setting [1] of under 200 nM.

In turn, `COc1cc(C(=O)NC[C@@](O)(c2cccc(F)c2)c2cc3c(c(-c4ccnc(C)c4Cl)n2)OC[C@]3(C)C(N)=O)cc2cn(C3(F)CC3)nc12` [Example 539] came in with an EC50 under setting [1] of under 200 nM.

Under setting [1], `C[C@]1(C(N)=O)COc2c1cc([C@@](O)(CNC(=O)c1cc(OC3CC3)c3nn(C4(F)CC4)cc3c1)c1cccc(F)c1)nc2-c1cccc(Cl)c1Cl` [Example 339] displayed an EC50 of under 200 nM.

With `COc1nccc(-c2nc([C@@](O)(CNC(=O)c3cc(OC)c4nn(C(F)F)cc4c3)C3(F)CC3)cc3c2OC[C@]3(C)C(N)=O)c1Cl` [Example 655], the EC50 under setting [2] was under 200 nM.

The compound `COc1cc(C(=O)NC[C@@](O)(c2ccccc2)c2cc3c(c(-c4cc(S(C)(=O)=O)ccc4F)n2)OC[C@]3(C)C(N)=O)cc2cn(C3(F)CC3)nc12` [Example 372] showed an EC50 under setting [1] of over 200 nM.

`COc1cc(C(=O)NC[C@@](O)(c2ccccc2)c2cc3c(c(-c4cc(C(F)(F)F)ccc4F)n2)OC[C@]3(C)C(N)=O)cc2oc(C3CC3)nc12` [Example 332] yielded an EC50 under setting [1] of under 200 nM.

`COc1nccc(-c2nc([C@@](O)(CNC(=O)c3cc(OC4CC4)c4nn(C(F)F)cc4c3)c3cccc(F)c3)cc3c2OC[C@]3(C)C(N)=O)c1Cl` [Example 902] registered an EC50 under setting [2] of over 200 nM.

As to `C[C@]1(C(N)=O)COc2c1cc([C@@](O)(CNC(=O)c1cc(OC3CC3)c3nc(C4CC4)oc3c1)c1ccccc1)nc2-c1cc(Cl)c(F)cc1F` [Example 233], the EC50 under setting [1] was under 200 nM.

Consider `COc1cc(C(=O)NC[C@](O)(c2cc3c(c(-c4c(F)cncc4F)n2)OC[C@]3(C)C(N)=O)C2CC2)cc2cn(C3CC3)nc12` [Example 729], for which, under setting [2], the concentration for a half-maximal effect (EC50) is under 200 nM.

In the case of `COc1cc(C(=O)NC[C@](O)(c2cc3c(c(-c4ccnc(C(F)(F)F)c4Cl)n2)OC[C@]3(C)C(N)=O)C(F)(F)F)cc2cn(C(F)F)nc12` [Example 790], the EC50 under setting [2] was under 200 nM.

`COc1cc(C(=O)NC[C@](O)(c2cc3c(c(-c4ccnc(C)c4Cl)n2)OC[C@]3(C)C(N)=O)C(F)(F)F)cc2cn(C3CC3)nc12` [Example 883] registered an EC50 under setting [2] of over 200 nM.

Regarding `COc1nccc(-c2nc([C@@](O)(CNC(=O)c3cc(OC)c4nn(C5CC5)cc4c3)c3ccccc3)cc3c2OC[C@]3(C)C(N)=O)c1Cl` [Example 553], the 50% effective concentration (EC50) under setting [1] was under 200 nM.

With `COc1cc(C(=O)NC[C@@](O)(c2ccccc2)c2cc3c(c(-c4ccnc(C)c4Cl)n2)OC[C@]3(C)C(N)=O)cc2cn(C3CC3)nc12` [Example 692], the EC50 under setting [2] is under 200 nM.

As to `C[C@]1(C(N)=O)COc2c1cc([C@@](O)(CNC(=O)c1ccc3nc(C4CC4)oc3c1)c1ccccc1)nc2-c1cc(C(F)(F)F)c(F)cc1F` [Example 307], the EC50 under setting [1] was over 200 nM.

For the compound `C[C@]1(C(N)=O)COc2c1cc([C@@](O)(CNC(=O)c1cc(OC3CC3)c3nn(C(F)F)cc3c1)C1CC1)nc2-n1ncc2c(F)cccc21` [Example 652], the EC50 under setting [2] was under 200 nM.

`COc1cc(-c2nc([C@@](O)(CNC(=O)c3cc(OC)c4nn(C5CC5)cc4c3)C(F)(F)F)cc3c2OC[C@]3(C)C(N)=O)c(Cl)cn1` [Example 835] had an EC50 under setting [2] of over 200 nM.

For the compound `COc1cc(C(=O)NC[C@@](O)(c2ccccc2)c2cc3c(c(-c4ccnc(F)c4Cl)n2)OC[C@]3(C)C(N)=O)cn2cc(C3CC3)nc12` [Example 359], under setting [1], the EC50 was under 200 nM.

Under setting [1], `COc1cc(C(=O)NC[C@@](O)(c2ccccc2)c2cc3c(c(-c4cc(F)c(F)cc4F)n2)OC[C@]3(C)C(N)=O)cc2oc(C3CC3)nc12` [Example 195] registered an EC50 of under 200 nM.

Under setting [2], `COc1nccc(-c2nc([C@@](O)(CNC(=O)c3cc(OC)c4nn(C5(F)CC5)cc4c3)C3CC(F)(F)C3)cc3c2OC[C@]3(C)C(N)=O)c1Cl` [Example 896] yielded an EC50 of under 200 nM.

Under setting [1], `COc1cc(C(=O)NC[C@](O)(c2cc3c(c(-c4cc(C(F)(F)F)ncc4F)n2)OC[C@]3(C)C(N)=O)C2CC2)cn2cc(C3CC3)nc12` [Example 246] gave a concentration giving a half-maximal response (EC50) of under 200 nM.

Consider `COc1cc(C(=O)NC[C@@](O)(c2ccccc2)c2cc3c(c(-c4ccc(F)c(F)c4Cl)n2)OC[C@]3(C)C(N)=O)cc2cn(C3(F)CC3)nc12` [Example 370], for which the EC50 under setting [1] was under 200 nM.

Turning to `COc1cc(C(=O)NC[C@](O)(c2cc3c(c(-c4ccnc(C(F)F)c4Cl)n2)OC[C@]3(C)C(N)=O)C(F)(F)F)cc2oc(C(F)F)nc12` [Example 552], the EC50 under setting [1] is under 200 nM.

Consider `COc1nccc(-c2nc([C@@](O)(CNC(=O)c3cc(OC4CC4)c4nn(C5(F)CC5)cc4c3)C3CC3)cc3c2OC[C@]3(C)C(N)=O)c1Cl` [Example 592], for which the EC50 under setting [1] was under 200 nM.

`COc1cc(C(=O)NC[C@](O)(c2cc3c(c(-c4ccnc5ccccc45)n2)OC[C@]3(C)C(N)=O)C2CC2)cc2cn(C3CC3)nc12` [Example 430]: under setting [1], the EC50 is under 200 nM.

As for `C[C@]1(C(N)=O)COc2c1cc([C@@](O)(CNC(=O)c1cc(Cl)c3[nH]ncc3c1)c1ccccc1)nc2-c1cc(Cl)c(F)cc1F` [Example 117], the EC50 under setting [1] was over 200 nM.

The compound `COc1cc(C(=O)NC[C@@](O)(c2ccc(=O)[nH]c2)c2cc3c(c(-c4cc(Cl)c(F)cc4F)n2)OC[C@]3(C)C(N)=O)cc2cn(C3CC3)nc12` [Example 505] yielded a half-maximal effective concentration (EC50) under setting [1] of over 200 nM.

Turning to `COc1cc(C(=O)NC[C@](O)(c2cc3c(c(-c4cc(C(F)(F)F)ncc4F)n2)OC[C@]3(C)C(N)=O)C2(F)CC2)cc2cn(C(F)F)nc12` [Example 667], the EC50 under setting [2] was under 200 nM.

`C[C@]1(C(N)=O)COc2c1cc([C@@](O)(CNC(=O)c1ccc3nc(C4CC4)oc3c1)c1ccccc1)nc2-c1cc(F)c(F)cc1F` [Example 194]: the EC50 under setting [1] is under 200 nM.

With `COc1cc(C(=O)NC[C@@](O)(c2cccc(S(N)(=O)=O)c2)c2cc3c(c(-c4cc(Cl)c(F)cc4F)n2)OC[C@]3(C)C(N)=O)cc2cn(C3CC3)nc12` [Example 486], the EC50 under setting [1] is over 200 nM.

Consider `COc1cc(C(=O)NC[C@](O)(c2cc3c(c(-c4ccnc(N5CCOCC5)c4Cl)n2)OC[C@]3(C)C(N)=O)C2CC2)cc2cn(C3CC3)nc12` [Example 805], for which the EC50 under setting [2] was over 200 nM.

For the compound `COc1cc(C(=O)NC[C@](O)(c2cc3c(c(-c4ccnc(C(F)(F)F)c4Cl)n2)OC[C@]3(C)C(N)=O)C(F)(F)F)cc2sc(C)nc12` [Example 537], the EC50 under setting [1] was under 200 nM.

In turn, `COc1nccc(-c2nc([C@@](O)(CNC(=O)c3cc(OC4CC4)c4nn(C5CC5)cc4c3)C(F)(F)F)cc3c2OC[C@]3(C)C(N)=O)c1Cl` [Example 586] showed an EC50 under setting [1] of under 200 nM.
